According to paper PMC12102759 (Protein Science : A Publication of the Protein Society, 2025):
Read-outs that look alike come from different tables or passages of the source.

Test system: G3BP1 NFT2
Format: binding, human
Conditions: library DMS-CoV, bait G3BP1 NFT2, prey N, listed as aa = residue placed at this position, column sums to 1

RNAPRITFGGPSDSTG T7P (RNAPRIPFGGPSDSTG)
DMS PSSM value, T (position 7) (peptide RNAPRITFGGPSDSTG): 0

RNAPRITFGGPSDSTG I6L (RNAPRLTFGGPSDSTG)
DMS PSSM value, I (position 6) (peptide RNAPRITFGGPSDSTG): 0.232

RNAPRITFGGPSDSTG G9R (RNAPRITFRGPSDSTG)
DMS PSSM value, G (position 9) (peptide RNAPRITFGGPSDSTG): 0

RNAPRITFGGPSDSTG S14A (RNAPRITFGGPSDATG)
DMS PSSM value, S (position 14) (peptide RNAPRITFGGPSDSTG): 0

APRITFGGPSDSTGSN S10H (APRITFGGPHDSTGSN)
DMS PSSM value, S (position 10) (peptide APRITFGGPSDSTGSN): 0

RNAPRITFGGPSDSTG T15S (RNAPRITFGGPSDSSG)
DMS PSSM value, T (position 15) (peptide RNAPRITFGGPSDSTG): 0

RNAPRITFGGPSDSTG N2T (RTAPRITFGGPSDSTG)
DMS PSSM value, N (position 2) (peptide RNAPRITFGGPSDSTG): 0

RNAPRITFGGPSDSTG R5Q (RNAPQITFGGPSDSTG)
DMS PSSM value, R (position 5) (peptide RNAPRITFGGPSDSTG): 0.0005824

RNAPRITFGGPSDSTG A3P (RNPPRITFGGPSDSTG)
DMS PSSM value, A (position 3) (peptide RNAPRITFGGPSDSTG): 0

APRITFGGPSDSTGSN P2N (ANRITFGGPSDSTGSN)
DMS PSSM value, P (position 2) (peptide APRITFGGPSDSTGSN): 0

APRITFGGPSDSTGSN G7P (APRITFPGPSDSTGSN)
DMS PSSM value, G (position 7) (peptide APRITFGGPSDSTGSN): 0

RNAPRITFGGPSDSTG F8H (RNAPRITHGGPSDSTG)
DMS PSSM value, F (position 8) (peptide RNAPRITFGGPSDSTG): 0

APRITFGGPSDSTGSN D11S (APRITFGGPSSSTGSN)
DMS PSSM value, D (position 11) (peptide APRITFGGPSDSTGSN): 0.01892

APRITFGGPSDSTGSN R3L (APLITFGGPSDSTGSN)
DMS PSSM value, R (position 3) (peptide APRITFGGPSDSTGSN): 0.2826

RNAPRITFGGPSDSTG F8A (RNAPRITAGGPSDSTG)
DMS PSSM value, F (position 8) (peptide RNAPRITFGGPSDSTG): 0

APRITFGGPSDSTGSN D11L (APRITFGGPSLSTGSN)
DMS PSSM value, D (position 11) (peptide APRITFGGPSDSTGSN): 0.001888

RNAPRITFGGPSDSTG I6S (RNAPRSTFGGPSDSTG)
DMS PSSM value, I (position 6) (peptide RNAPRITFGGPSDSTG): 0

RNAPRITFGGPSDSTG R5Y (RNAPYITFGGPSDSTG)
DMS PSSM value, R (position 5) (peptide RNAPRITFGGPSDSTG): 0.03289

RNAPRITFGGPSDSTG T15Q (RNAPRITFGGPSDSQG)
DMS PSSM value, T (position 15) (peptide RNAPRITFGGPSDSTG): 0

APRITFGGPSDSTGSN T5W (APRIWFGGPSDSTGSN)
DMS PSSM value, T (position 5) (peptide APRITFGGPSDSTGSN): 0

APRITFGGPSDSTGSN S15R (APRITFGGPSDSTGRN)
DMS PSSM value, S (position 15) (peptide APRITFGGPSDSTGSN): 0

RNAPRITFGGPSDSTG T15F (RNAPRITFGGPSDSFG)
DMS PSSM value, T (position 15) (peptide RNAPRITFGGPSDSTG): 0

APRITFGGPSDSTGSN D11A (APRITFGGPSASTGSN)
DMS PSSM value, D (position 11) (peptide APRITFGGPSDSTGSN): 0.0135

RNAPRITFGGPSDSTG A3H (RNHPRITFGGPSDSTG)
DMS PSSM value, A (position 3) (peptide RNAPRITFGGPSDSTG): 0

APRITFGGPSDSTGSN D11I (APRITFGGPSISTGSN)
DMS PSSM value, D (position 11) (peptide APRITFGGPSDSTGSN): 0.002718

APRITFGGPSDSTGSN G14P (APRITFGGPSDSTPSN)
DMS PSSM value, G (position 14) (peptide APRITFGGPSDSTGSN): 0.002211

RNAPRITFGGPSDSTG S12T (RNAPRITFGGPTDSTG)
DMS PSSM value, S (position 12) (peptide RNAPRITFGGPSDSTG): 0

APRITFGGPSDSTGSN F6A (APRITAGGPSDSTGSN)
DMS PSSM value, F (position 6) (peptide APRITFGGPSDSTGSN): 0

APRITFGGPSDSTGSN T13Q (APRITFGGPSDSQGSN)
DMS PSSM value, T (position 13) (peptide APRITFGGPSDSTGSN): 0.01432

APRITFGGPSDSTGSN G8M (APRITFGMPSDSTGSN)
DMS PSSM value, G (position 8) (peptide APRITFGGPSDSTGSN): 0

APRITFGGPSDSTGSN T5M (APRIMFGGPSDSTGSN)
DMS PSSM value, T (position 5) (peptide APRITFGGPSDSTGSN): 0

RNAPRITFGGPSDSTG G16W (RNAPRITFGGPSDSTW)
DMS PSSM value, G (position 16) (peptide RNAPRITFGGPSDSTG): 0

APRITFGGPSDSTGSN G8S (APRITFGSPSDSTGSN)
DMS PSSM value, G (position 8) (peptide APRITFGGPSDSTGSN): 0.005734

APRITFGGPSDSTGSN G14V (APRITFGGPSDSTVSN)
DMS PSSM value, G (position 14) (peptide APRITFGGPSDSTGSN): 0.009945

APRITFGGPSDSTGSN S10I (APRITFGGPIDSTGSN)
DMS PSSM value, S (position 10) (peptide APRITFGGPSDSTGSN): 0.2604

RNAPRITFGGPSDSTG A3M (RNMPRITFGGPSDSTG)
DMS PSSM value, A (position 3) (peptide RNAPRITFGGPSDSTG): 0

APRITFGGPSDSTGSN S15N (APRITFGGPSDSTGNN)
DMS PSSM value, S (position 15) (peptide APRITFGGPSDSTGSN): 0.001916

APRITFGGPSDSTGSN S12H (APRITFGGPSDHTGSN)
DMS PSSM value, S (position 12) (peptide APRITFGGPSDSTGSN): 0.0346

RNAPRITFGGPSDSTG D13M (RNAPRITFGGPSMSTG)
DMS PSSM value, D (position 13) (peptide RNAPRITFGGPSDSTG): 0

RNAPRITFGGPSDSTG F8R (RNAPRITRGGPSDSTG)
DMS PSSM value, F (position 8) (peptide RNAPRITFGGPSDSTG): 0

RNAPRITFGGPSDSTG P4L (RNALRITFGGPSDSTG)
DMS PSSM value, P (position 4) (peptide RNAPRITFGGPSDSTG): 0

APRITFGGPSDSTGSN G14Q (APRITFGGPSDSTQSN)
DMS PSSM value, G (position 14) (peptide APRITFGGPSDSTGSN): 0.3116

APRITFGGPSDSTGSN G14M (APRITFGGPSDSTMSN)
DMS PSSM value, G (position 14) (peptide APRITFGGPSDSTGSN): 0.3018

RNAPRITFGGPSDSTG S14E (RNAPRITFGGPSDETG)
DMS PSSM value, S (position 14) (peptide RNAPRITFGGPSDSTG): 0

APRITFGGPSDSTGSN D11G (APRITFGGPSGSTGSN)
DMS PSSM value, D (position 11) (peptide APRITFGGPSDSTGSN): 0
